Reference: US20150140059A1 (The Regents of the University of California, priority 2012, published 2015)
Like-named read-outs stand apart in the source and are kept apart here.

Legend:
[1] = system: C3H10T1/2 embryonic fibroblast cells; format: cell-based, mouse; conditions: C3H cells, 4 days; for EC50: whole cell extracts, read-out: EC50 for inducing ALP activity
Experimental: (§1) For direct comparison to Oxy133, C3H cells were also treated with Oxy34 and Oxy49 (FIG. 2A). After 4 days, alkaline phosphatase (ALP) activity was measured in whole cell extracts.
(§2) Cells at confluence were treated with vehicle, Oxy133 or Oxy149. After 4 days, alkaline phosphatase (ALP) activity was measured in whole cell extracts.
(§3) Alkaline phosphatase (ALP) activity assay on whole cell extracts (13,14), and von Kossa staining of cell monolayers for mineralization (16) were performed as previously described.

[2] = system: M2-10B4 bone marrow stromal cells; assay: Alkaline phosphatase (ALP) activity assay in M2-10B4 cells; format: cell-based, mouse
Experimental: as §1, §2, §3

Lewis rats [3] = conditions: prior studies (ref. 15); cited from earlier work
[4] = system: primary human mesenchymal stem cells; assay: Osteogenic gene expression by quantitative RT-PCR in primary human MSC; format: cell-based; conditions: 5 μM
From the text: (La Jolla, Calif.). […] Human primers sequences were: […] ID NO:1) and 3'-[NT] (SEQ ID NO:2), BSP 5'-[NT] ID NO:3) and 3'-[NT] ID NO:4), […] ID NO:5) and 3'-[NT]

[5] = system: 8X-Gli luciferase reporter (Hedgehog pathway); format: cell-based, mouse; conditions: C3H cells, 48 hours
Experimental: (§4) After 4 days ALP activity, and after 7 days the expression of osteogenic genes ALP, BSP, and OSX was measured by quantitative real-time PCR (p<0.001 for control vs. Oxy133, and for Oxy133 vs. Oxy133+Cyc for ALP activity and for the expression of all genes shown). […] (p<0.001 for control vs. Oxy133 at 100 nM, 250 nM, and 1 μM Oxy133). (FIG. 4C) The amount of YFP-Smo captured by 20S beads or control beads was compared in samples containing either no competitor or 50 μM of a free competitor sterol (20S, Oxy133 or Oxy16). The YFP-Smo captured by the beads was measured by Western blot (top) and plotted (bottom) relative to the amount captured in the binding reaction with no competitor.
Cells at 70% confluence in 24-well plates were transiently transfected with Gli-dependent firefly luciferase and Renilla luciferase vectors as we have previously described (17,18). […] Luciferase activity was assessed using the Dual Luciferase Reporter Assay System (Promega Corporation, Madison, Wis.) according to manufacturer's instructions after cells were treated for 48 hours.

Lewis rats [6] = assay: Rat posterolateral intertransverse process spinal fusion at L4-L5; format: in vivo; conditions: for Fusion Rates, Manual Palpation / Fusion Rates, Micro-CT / Fusion Rates, X-ray: at sacrifice (8 weeks); for bilateral fusion on radiographs (animals): four weeks; for Fusion Mass Bone Volume / Fusion Mass Bone Volume to Tissue Volume / Fusion Mass Total Tissue Volume / Fusion Mass Trabecular Separation / trabecular thickness per footnote: micro-CT
Experimental: Thirty-eight 8-week-old male Lewis rats were purchased from Charles River Laboratories (Wilmington, Mass.) and were maintained and housed at the UCLA vivarium in accordance with regulations set forth by the UCLA Office of Protection of Research Subjects. The study was performed under a protocol approved by the UCLA Animal Research Committee (ARC).
Animals were pre-medicated with sustained release buprenorphine thirty minutes prior to surgery and anesthetized with 2% isoflurane administered in oxygen (1 L/min). The surgical site was shaved and disinfected with Betadine and 70% ethanol. Posterolateral intertransverse process spinal fusion at L4-L5 was performed as in prior studies (21,22). The L6 vertebral body was identified using the iliac crest as a landmark. A 4-cm longitudinal midline incision was made through the skin and subcutaneous tissue over L4-L5 down to the lumbodorsal fascia. A 2-cm longitudinal paramedial incision was then made in the paraspinal muscles bilaterally to expose the transverse processes of L4-L5, which were decorticated with a high-speed burr. […] The implants were then covered with the overlying paraspinal muscles and the lumbodorsal fascia and skin were closed with 4-0 Prolene sutures (Ethicon, Inc., Somerville, N.J.). Animals were allowed to ambulate, eat, and drink ad libitum immediately after surgery.
Posteroanterior radiographs of the lumbar spine were taken on each animal at 4, 6, and 8 weeks after surgery using a Faxitron LX60 cabinet radiography system and evaluated blindly by two independent observers employing the following standardized scale: 0, no fusion; 1, unilateral fusion; and 2, complete bilateral fusion. The scores from the observers were added together and only a score of 4 was considered as complete fusion.
Eight weeks after surgery, animals were euthanized and the spines were surgically removed and evaluated by two blinded independent observers for motion between levels. Nonunion was recorded if motion was observed between the facets or transverse processes on either side. Complete fusion was recorded if no motion was observed bilaterally. Spines were scored as either fused or not fused. Unanimous agreement was required to consider complete fusion.
Each removed spine was analyzed by high resolution micro-computed tomography (micro-CT), using a SkyScan 1172 scanner (SkyScan, Belgium) with a voxel isotropic resolution of 20 μm and an X-ray energy of 55 kVp and […] to further assess the fusion rate and observe the fusion mass as we have previously reported (15). Three hundred and sixty projections were acquired over an angular range of 180° with steps of 0.5 with an exposure time of 220 msec/slice. Five frames were averaged at each rotation step to get better signal to noise ratio. A 0.5 mm aluminum filter was used to narrow down the X-ray beam frequency in order to minimize beam hardening artifact. Virtual image slices were reconstructed using the cone-beam reconstruction software version 2.6 based on the Feldkamp algorithm (SkyScan). These settings produced serial cross-sectional 1024×1024 pixel images. Sample re-orientation and 2D visualization were performed using DataViewer (SkyScan). 3D visualization was performed using Dolphin Imaging version 11 (Dolphin Imaging & Management Solutions, Chatsworth, Calif.). Fusion was defined as the bilateral presence of bridging bone between the L4 and L5 transverse processes. The reconstructed images were judged to be fused or not fused by two experienced independent observers. To quantify the density of bone formed within each fusion mass, the tissue volume of the mass (TV), trabecular bone volume within the mass (BV), BV/TV ratio, trabecular thickness, and trabecular separation were calculated. This was performed using DataViewer software with measurements across 501 axial slices (20 um per slice, 10.02 mm length) within each fusion mass, centered at the level of the intervertebral body of L4-5.

Smoothened (YFP-Smo) = biological target: T1, Smoothened (YFP-Smo) (Mus musculus, UniProt P56726); assay: YFP-Smo capture by 20S-beads, competition with free sterol; format: binding; conditions: 50 μM free competitor sterol, Western blot, semi-quantitative
T1 construct: expressed in transfected cells
Experimental: as §4
We previously reported that 20S selectively activates Hh signaling by binding to the Smo receptor (19). To determine whether Oxy133 activates Hh signaling by the same mechanism, we tested the ability of Oxy133 to compete for YFP-tagged Smo (YFP-Smo) binding with a 20S analogue coupled to magnetic beads. As we previously reported, this analogue, nat-20S-yne, contains an alkyne moiety on the iso-octyl chain, allowing for click chemistry-mediated coupling to magnetic beads (20S-beads) (19). Using these beads for sterol-binding assays, the amount of YFP-Smo remaining on the beads relative to a no-competitor sample is measured by Western blotting. […]

T1 sequence (P56726 33-793): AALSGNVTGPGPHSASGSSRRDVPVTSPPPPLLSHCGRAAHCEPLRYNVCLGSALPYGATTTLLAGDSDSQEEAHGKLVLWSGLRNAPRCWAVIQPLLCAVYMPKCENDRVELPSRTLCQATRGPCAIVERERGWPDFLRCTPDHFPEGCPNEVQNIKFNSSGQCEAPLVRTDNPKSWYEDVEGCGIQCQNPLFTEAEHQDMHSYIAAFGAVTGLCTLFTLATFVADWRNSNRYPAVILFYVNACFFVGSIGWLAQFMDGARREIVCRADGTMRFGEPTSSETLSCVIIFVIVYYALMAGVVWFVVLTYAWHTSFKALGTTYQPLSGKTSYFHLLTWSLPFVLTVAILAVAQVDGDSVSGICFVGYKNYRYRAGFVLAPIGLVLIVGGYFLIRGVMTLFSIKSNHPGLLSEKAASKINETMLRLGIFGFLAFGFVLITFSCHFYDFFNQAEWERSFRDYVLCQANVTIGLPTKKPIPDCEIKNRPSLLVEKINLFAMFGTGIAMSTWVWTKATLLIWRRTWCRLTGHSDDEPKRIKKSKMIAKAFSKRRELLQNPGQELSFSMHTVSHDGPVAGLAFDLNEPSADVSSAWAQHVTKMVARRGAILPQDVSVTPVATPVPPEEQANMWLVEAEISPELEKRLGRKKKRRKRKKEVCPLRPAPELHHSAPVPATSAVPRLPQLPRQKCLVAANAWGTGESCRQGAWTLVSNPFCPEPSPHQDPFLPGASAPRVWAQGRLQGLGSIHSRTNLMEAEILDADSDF

CC1=C2C[C@H]3[C@@H](CC=C4C[C@@H](O)CC[C@@]43C)[C@@H]2CC[C@]12O[C@@H]1C[C@H](C)CN[C@H]1[C@H]2C [Cyclopamine, reference compound]
inhibition of Oxy133-induced ALP activity ([1]; 4 μM cyclopamine): completely inhibited | inhibition of Oxy133-induced ALP activity and osteogenic marker expression ([2]; M2 cells (data not shown)): completely inhibited

CC(C)CCCC(C)(O)C1CCC2C3CC(O)C4CC(O)CCC4(C)C3CCC21C (stereo not shown) [Oxy34]
EC50 [1]: 800 nM | fusion at the 4 week time point (Lewis rats [3]): no fusion was observed

C=C(C)CCC[C@](C)(O)[C@H]1CC[C@H]2[C@@H]3C[C@H](O)[C@H]4C[C@@H](O)CC[C@]4(C)[C@H]3CC[C@@]21C [Oxy49]
EC50 [1]: 900 nM | fusion at the 4 week time point (Lewis rats [3]): no fusion was observed

CCCCCC[C@](C)(O)[C@H]1CC[C@H]2[C@@H]3C[C@H](O)[C@H]4C[C@@H](O)CC[C@]4(C)[C@H]3CC[C@@]21C [Oxy133, (3S,5S,6S,8R,9S,10R,13S,14S,17S)-17-((S)-2-hydroxyoctan-2-yl)-10,13-dimethylhexadecahydro-1H-cyclopenta[a]phenanthrene-3,6-diol]
EC50 ([1]; Mus musculus, 96 h): ~500 nM | EC50 ([2]; Mus musculus, M210B4, 96 h, read-out: EC50 for inducing ALP activity): ~440 nM | BSP expression increase ([4]; 2 and 4 weeks): 4 fold | OCN expression induction ([4]; 4 weeks): 2 fold | OSX expression induction ([4]; 4 weeks): 3 fold | BSP expression increase ([4]; one week): 2 fold | Gli-dependent reporter activity induction ([5]; 100 nM): 5 fold | Gli-dependent reporter activity induction ([5]; 1 μM): 17 fold | Fusion Rates, Manual Palpation (Lewis rats [6]; 0.2 mg): 0% | Fusion Rates, Micro-CT (Lewis rats [6]; 0.2 mg): 0% | Fusion Rates, X-ray (Lewis rats [6]; 0.2 mg): 0% | bilateral fusion, manual palpation (animals) (Lewis rats [6]; 2 mg, 8 weeks): 4/8 | bilateral fusion, micro-CT (animals) (Lewis rats [6]; 2 mg, 8 weeks): 4/8 | Fusion Rates, Manual Palpation (Lewis rats [6]; 2 mg): 50% | Fusion Rates, Micro-CT (Lewis rats [6]; 2 mg): 50% | Fusion Rates, X-ray (Lewis rats [6]; 2 mg): 50% | fusion on radiographs (animals) (Lewis rats [6]; 2 mg, eight weeks): 4/8 | bilateral fusion on radiographs (animals) (Lewis rats [6]; 2 mg): 3/8 | Fusion Mass Bone Volume (Lewis rats [6]; 2 mg, 8 weeks): 21.217 mm^3 | Fusion Mass Bone Volume to Tissue Volume (Lewis rats [6]; 2 mg, 8 weeks): 27.104% | Fusion Mass Total Tissue Volume (Lewis rats [6]; 2 mg, 8 weeks): 78.586 mm^3 | Fusion Mass Trabecular Separation (Lewis rats [6]; 2 mg, 8 weeks): 321.693 μm | trabecular thickness per footnote (Lewis rats [6]; 2 mg, 8 weeks): 134.008 | bilateral fusion, manual assessment (animals) (Lewis rats [6]; 20 mg, 8 weeks): 6/7 | Fusion Rates, Manual Palpation (Lewis rats [6]; 20 mg): 86% | Fusion Rates, Micro-CT (Lewis rats [6]; 20 mg): 100% | Fusion Rates, X-ray (Lewis rats [6]; 20 mg): 100% | bilateral fusion on radiographs (animals) (Lewis rats [6]; 20 mg): 6/7 | Fusion Mass Bone Volume (Lewis rats [6]; 20 mg, 8 weeks): 19.592 mm^3 | Fusion Mass Bone Volume to Tissue Volume (Lewis rats [6]; 20 mg, 8 weeks): 24.565% | Fusion Mass Total Tissue Volume (Lewis rats [6]; 20 mg, 8 weeks): 79.934 mm^3 | Fusion Mass Trabecular Separation (Lewis rats [6]; 20 mg, 8 weeks): 310.912 μm | trabecular thickness per footnote (Lewis rats [6]; 20 mg, 8 weeks): 124.737

CC(C)CCC[C@](C)(O)[C@H]1CC[C@H]2[C@@H]3CC=C4C[C@@H](O)CC[C@]4(C)[C@H]3CC[C@@]21C [Oxy 20S, 20(S)-hydroxycholesterol]
amount of YFP-Smo captured on 20S-coupled beads (Smoothened (YFP-Smo)): reduced the amount of YFP-Smo captured
